# Assay results published in US7704995B2 (Exelixis, Inc., priority 2003, dated 2010).
# Biological target: T1, Chk1 (Homo sapiens, UniProt O14757)
# T1 construct: purchased Upstate Biotechnology
# T1 sequence (O14757 1-476): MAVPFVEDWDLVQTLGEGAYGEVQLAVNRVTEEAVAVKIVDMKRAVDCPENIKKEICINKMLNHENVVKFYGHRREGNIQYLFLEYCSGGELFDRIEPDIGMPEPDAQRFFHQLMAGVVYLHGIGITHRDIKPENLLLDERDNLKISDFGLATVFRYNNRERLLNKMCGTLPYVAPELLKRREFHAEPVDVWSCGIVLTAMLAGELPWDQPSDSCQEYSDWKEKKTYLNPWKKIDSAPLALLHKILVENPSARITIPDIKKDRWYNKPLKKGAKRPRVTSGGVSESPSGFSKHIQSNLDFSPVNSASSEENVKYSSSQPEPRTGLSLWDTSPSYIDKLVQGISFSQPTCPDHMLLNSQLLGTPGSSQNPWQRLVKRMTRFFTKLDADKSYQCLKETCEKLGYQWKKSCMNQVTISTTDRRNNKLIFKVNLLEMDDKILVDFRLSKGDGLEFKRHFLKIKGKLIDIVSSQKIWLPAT
# Experiment: Chk1 kinase assay: incorporation of γ-33P ATP into immobilized myelin basic protein
# Assay type: biochemical
# Settings: Table 11; Chk1 only; read-out: Chk1 IC50
# Method in brief: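 Plates coated with MBP, then kinase reactions in Hepes pH 7.6 buffer with 10 mM MgCl2 and 1% DMSO were started by adding unlabeled plus γ-33P ATP (10 μM for Chk1 at 10 nM enzyme; 30 μM for Chk2 at 20 nM enzyme). After 1 h at room temperature, plates were washed and counted.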
row,Compound,IC50
1,"CNC(=O)c1nc(-c2cccc(C(=O)NNc3ccccc3F)c2)cnc1N [Example 432, 3-amino-6-(3-{[2-(2-fluorophenyl)hydrazino]carbonyl}phenyl)-N-methylpyrazine-2-carboxamide]",50 to 1000 nM
2,"CNC(=O)c1nc(-c2cccc(C(=O)NNc3c(F)c(F)cc(F)c3F)c2)cnc1N [Example 434, 3-amino-N-methyl-6-(3-{[2-(2,3,5,6-tetrafluorophenyl)hydrazino]carbonyl}phenyl)pyrazine-2-carboxamide]",50 to 1000 nM
3,"CNC(=O)c1nc(-c2cccc(CNCc3cnc(C)cn3)c2)cnc1N [Example 435, 3-amino-N-methyl-6-[3-({[(5-methylpyrazin-2-yl)methyl]amino}methyl)phenyl]pyrazine-2-carboxamide]",50 to 1000 nM
4,"CCCc1ccc(CNCc2cccc(-c3cnc(N)c(C(=O)NC)n3)c2)cc1 [Example 443, 3-amino-N-methyl-6-[3-({[(4-propylphenyl)methyl]amino}methyl)phenyl]pyrazine-2-carboxamide]",50 to 1000 nM
5,"CNC(=O)c1nc(-c2cccc(CN[C@@H]3CCc4ccccc4C3)c2)cnc1N [Example 445, 3-amino-N-methyl-6-(3-{[(2R)-1,2,3,4-tetrahydronaphthalen-2-ylamino]methyl}phenyl)pyrazine-2-carboxamide]",< 50 nM
6,"CNC(=O)c1nc(-c2cccc(CNC3c4ccccc4-c4ccccc43)c2)cnc1N [Example 447, 3-amino-6-{3-[(9H-fluoren-9-ylamino)methyl]phenyl}-N-methylpyrazine-2-carboxamide]",1000 to 10000 nM
7,"CNC(=O)c1nc(-c2cccc(CNCc3ccc(-c4ccccc4)cc3F)c2)cnc1N [Example 449, 3-amino-6-[3-({[(3-fluorobiphenyl-4-yl)methyl]amino}methyl)phenyl]-N-methylpyrazine-2-carboxamide]",50 to 1000 nM
8,"CNC(=O)c1nc(-c2cccc(CNCc3ccc(-c4ccco4)cc3F)c2)cnc1N [Example 451, 3-amino-6-[3-({[(2-fluoro-4-furan-2-ylphenyl)methyl]amino}methyl)phenyl]-N-methylpyrazine-2-carboxamide]",< 50 nM
9,"CNC(=O)c1nc(-c2cccc(CN[C@H]3c4ccccc4C[C@H]3O)c2)cnc1N [Example 453, 3-amino-6-[3-({[(1S,2R)-2-hydroxy-2,3-dihydro-1H-inden-1-yl]amino}methyl)phenyl]-N-methylpyrazine-2-carboxamide]",< 50 nM
10,"COC(=O)c1nc(-c2cccc(CNC3CCc4c(F)ccc(F)c43)c2)cnc1N (stereo not drawn) [Example 455, methyl 3-amino-6-(3-{[(4,7-difluoro-2,3-dihydro-1H-inden-1-yl)amino]methyl}phenyl)pyrazine-2-carboxylate]",50 to 1000 nM
11,"CNC(=O)c1nc(-c2cccc(CNC3Cc4ccc(Br)cc4C3)c2)cnc1N (stereo not drawn) [Example 456, 3-amino-6-(3-{[(5-bromo-2,3-dihydro-1H-inden-2-yl)amino]methyl}phenyl)-N-methylpyrazine-2-carboxamide]",50 to 1000 nM
12,"CNC(=O)c1nc(-c2cccc(CNCc3cc(-c4cccs4)ccc3F)c2)cnc1N [Example 457, 3-amino-6-{3-[({[2-fluoro-5-(2-thienyl)phenyl]methyl}amino)methyl]phenyl}-N-methylpyrazine-2-carboxamide]",50 to 1000 nM
13,"C=Cc1ccc(CNCc2cccc(-c3cnc(N)c(C(=O)NC)n3)c2)c(F)c1 [Example 458, 3-amino-6-[3-({[(4-ethenyl-2-fluorophenyl)methyl]amino}methyl)phenyl]-N-methylpyrazine-2-carboxamide]",50 to 1000 nM

# More lines, now with the values ahead:
row,IC50,Compound
1,50 to 1000 nM,"CNC(=O)c1nc(-c2cccc(C(=O)NNc3ccc(F)cc3F)c2)cnc1N [Example 433, 3-amino-6-(3-{[2-(2,4-difluorophenyl)hydrazino]carbonyl}phenyl)-N-methylpyrazine-2-carboxamide]"
2,< 50 nM,"CNC(=O)c1nc(-c2cccc(CN[C@H]3CCCc4ccccc43)c2)cnc1N [Example 436, 3-amino-N-methyl-6-(3-{[(1S)-1,2,3,4-tetrahydronaphthalen-1-ylamino]methyl}phenyl)pyrazine-2-carboxamide]"
3,50 to 1000 nM,"CNC(=O)c1nc(-c2cccc(CN[C@H]3CCN(Cc4ccccc4)C3)c2)cnc1N [Example 437, 3-amino-N-methyl-6-[3-({[(3S)-1-(phenylmethyl)pyrrolidin-3-yl]amino}methyl)phenyl]pyrazine-2-carboxamide]"
4,50 to 1000 nM,"CNC(=O)c1nc(-c2cccc(CN[C@@H]3CCN(Cc4ccccc4)C3)c2)cnc1N [Example 438, 3-amino-N-methyl-6-[3-({[(3R)-1-(phenylmethyl)pyrrolidin-3-yl]amino}methyl)phenyl]pyrazine-2-carboxamide]"
5,50 to 1000 nM,"CCN(Cc1ccccc1)Cc1cccc(-c2cnc(N)c(C(=O)NC)n2)c1 [Example 439, 3-amino-6-(3-{[ethyl(phenylmethyl)amino]methyl}phenyl)-N-methylpyrazine-2-carboxamide]"
6,50 to 1000 nM,"CNC(=O)c1nc(-c2cccc(CN[C@H]3C[C@H]3c3ccccc3)c2)cnc1N [Example 440, 3-amino-N-methyl-6-[3-({[(1S,2S)-2-phenylcyclopropyl]amino}methyl)phenyl]pyrazine-2-carboxamide]"
7,50 to 1000 nM,"CNC(=O)c1nc(-c2cccc(C(=O)NCc3ccccc3)c2)cnc1N [Example 441, 3-Amino-6-(3-benzylcarbamoyl-phenyl)-pyrazine-2-carboxylic acid methylamide]"
8,50 to 1000 nM,"CNC(=O)c1nc(-c2cccc(-c3nc(-c4ccccc4)c[nH]3)c2)cnc1N [Example 442, 3-amino-N-methyl-6-[3-(4-phenyl-1H-imidazol-2-yl)phenyl]pyrazine-2-carboxamide]"
9,50 to 1000 nM,"CNC(=O)c1nc(-c2cccc(CNCc3cc(Br)ccc3F)c2)cnc1N [Example 444, 3-amino-6-[3-({[(5-bromo-2-fluorophenyl)methyl]amino}methyl)phenyl]-N-methylpyrazine-2-carboxamide]"
10,50 to 1000 nM,"CNC(=O)c1nc(-c2cccc(CNC(C)(C)c3ccccc3)c2)cnc1N [Example 446, 3-amino-N-methyl-6-(3-{[(1-methyl-1-phenylethyl)amino]methyl}phenyl)pyrazine-2-carboxamide]"
11,50 to 1000 nM,"CNC(=O)c1nc(-c2cccc(CNc3cccc4ccccc34)c2)cnc1N [Example 448, 3-amino-N-methyl-6-{3-[(naphthalen-1-ylamino)methyl]phenyl}pyrazine-2-carboxamide]"
12,< 50 nM,"CNC(=O)c1nc(-c2cccc(CNCc3ccc(-c4cccs4)cc3F)c2)cnc1N [Example 450, 3-amino-6-{3-[({[2-fluoro-4-(2-thienyl)phenyl]methyl}amino)methyl]phenyl}-N-methylpyrazine-2-carboxamide]"
13,50 to 1000 nM,"CNC(=O)c1nc(-c2cccc(CNc3ccc4ccccc4c3)c2)cnc1N [Example 452, 3-amino-N-methyl-6-{3-[(naphthalen-2-ylamino)methyl]phenyl}pyrazine-2-carboxamide]"
14,< 50 nM,"CNC(=O)c1nc(-c2cccc(CN[C@H]3CCc4ccccc4C3)c2)cnc1N [Example 454, 3-amino-N-methyl-6-(3-{[(2S)-1,2,3,4-tetrahydronaphthalen-2-ylamino]methyl}phenyl)pyrazine-2-carboxamide]"
